# Measurements: patent publication US8008007B2, “S-adenosyl-L-methionine analogs with extended activated groups for transfer by methyltransferases” (RWTH Aachen, priority 2005, dated 2011)
# Target: T1, M.HhaI-Q82A/N304A (Haemophilus parahaemolyticus, UniProt P05102, N304A/Q82A)
# T1 construct: made in house
# Test: Modification of cytosine-C5 in duplex oligodeoxynucleotide III.IV by M.HhaI-Q82A/N304A, nucleoside analysis by HPLC/ESI-MS
# Type: biochemical
# Details: duplex III.IV 10 μM, cofactor 300 μM, enzyme 12.5 μM, 37° C. over night
# Method: After enzymatic transfer the duplex oligodeoxy-nucleotides were enzymatically fragmented and the resulting modified nucleosides were analyzed by reversed-phase HPLC coupled with ESI-MS.
# Therefore, the codon for N304 was changed to a codon for alanine by standard Megaprimer PCR mutagenesis (Sambrook and Russell, (2001) Cold Spring Harbor Laboratory Press, 13.31-13.35) and the fragment containing this mutation was cloned into the plasmid containing the Q82A mutation (Example 2B, Example 3B.2. The correct DNA sequence of the complete gene was verified by DNA sequencing. Expression and purification of the Q82A/N304A variant was performed as described for the wild-type enzyme (Kumar et al., (1992) Biochemistry 31, 8648-8653; Klimasauskas et al., (1998) EMBO J. 17, 317-324). The presence of the amino acid substitution was verified by mass spectrometric analysis of purified M.HhaI-Q82A/N304A.
# The duplex oligodeoxynucleotide III.IV (compare Scheme 6, Example 2B) was produced by mixing equal molar amounts (2.5 nmol) of complementary single-stranded oligodeoxynucleotide III (5′-[…] CTAT-3′) (SEQ ID NO. 3) and IV (5′-[…]-3′) (SEQ. ID NO. 4) in water, heating at 85° C. for 5 min and slow cooling to room temperature. […] The solution was heated to 80° C. for 10 min, supplemented with Proteinase K and incubated at 55° C. for 2 h. […]
# T1 sequence (P05102 whole entry Q82A/N304A): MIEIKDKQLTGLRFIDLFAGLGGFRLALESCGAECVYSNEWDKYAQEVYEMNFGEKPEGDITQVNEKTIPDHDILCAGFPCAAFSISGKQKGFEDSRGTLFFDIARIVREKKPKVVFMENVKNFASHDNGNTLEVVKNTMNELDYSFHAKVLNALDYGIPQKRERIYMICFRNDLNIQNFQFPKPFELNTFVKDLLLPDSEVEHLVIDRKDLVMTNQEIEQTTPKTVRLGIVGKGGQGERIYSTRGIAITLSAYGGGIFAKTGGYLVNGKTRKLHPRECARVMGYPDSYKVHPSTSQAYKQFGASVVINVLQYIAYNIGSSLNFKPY
compound,measurement,value
NCCCC(=O)NCC#CC[S+](CCC(N)C(=O)O)CC1OC(n2cnc3c(N)ncnc32)C(O)C1O (stereo not shown) [Cofactor 10],cofactor function for M.HhaI-Q82A/N304A (transfer of group Z-R to cytosine-C5),functions as a cofactor
